Legend:
JAK1 (h) = JAK1 (h) (Homo sapiens (Human), UniProt P23458); assay: JAK1 (h) kinase activity assay; format: biochemical
Experimental: (§1) The above assay procedure can be used to determine the IC50 for inhibition and/or the inhibition constant, Ki. The IC50 is defined as the concentration of compound required to reduce the enzyme activity by 50% under the condition of the assay. The IC50 value is estimated by preparing a 10 point curve using a ½ log dilution series (for example, a typical curve may be prepared using the following compound concentrations: 3 μM, 1 μM, 0.3 μM, 0.1 μM, 0.03 μM, 0.01 μM, 0.003 μM, 0.001 μM, 0.0003 μM and 0 μM).
(§2) JAK1 (h) is incubated with 20 mM Tris/HCl pH 7.5, 0.2 mM EDTA, 500 μM GEEPLYWSFPAKKK, 10 mM MgAcetate and [γ-^33P-ATP] (specific activity approx. 500 cpm/pmol, concentration as required). The reaction is initiated by the addition of the MgATP mix. After incubation for 40 minutes at room temperature, the reaction is stopped by the addition of 3% phosphoric acid solution. 10 μL of the reaction is then spotted onto a P30 filtermat and washed three times for 5 minutes in 75 mM phosphoric acid and once in methanol prior to drying and scintillation counting.
(§3) The kinase assays described herein were performed at Millipore UK Ltd, Dundee Technology Park, Dundee DD2 1SW, UK.

Aurora-A (h) = Aurora-A (h) (Homo sapiens (Human), UniProt O14965); assay: Aurora-A (h) kinase activity assay; format: biochemical
Aurora-A (h), sequence (O14965 whole entry): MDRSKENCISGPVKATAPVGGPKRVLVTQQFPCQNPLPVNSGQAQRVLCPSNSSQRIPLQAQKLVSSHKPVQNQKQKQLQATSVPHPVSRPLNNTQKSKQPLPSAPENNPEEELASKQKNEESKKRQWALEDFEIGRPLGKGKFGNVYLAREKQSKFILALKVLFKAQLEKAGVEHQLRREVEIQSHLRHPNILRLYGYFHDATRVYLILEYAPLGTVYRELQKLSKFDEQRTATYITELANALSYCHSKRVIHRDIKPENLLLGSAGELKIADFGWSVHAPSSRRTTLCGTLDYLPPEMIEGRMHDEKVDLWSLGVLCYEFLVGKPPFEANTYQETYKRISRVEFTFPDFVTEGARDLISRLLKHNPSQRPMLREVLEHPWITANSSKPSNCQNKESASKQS
Experimental: as §1
as §2, with “Aurora-A (h)” for “JAK1 (h)”, “with 8” for “with 20”, “mM MOPS” for “mM Tris/HCl”, “pH 7.0,” for “pH 7.5,”, “EDTA, 200” for “EDTA, 500”, “μM LRRASLG (Kemptide),” for “μM GEEPLYWSFPAKKK,”
as §3

JAK2 (h) = JAK2 (h) (Homo sapiens (Human), UniProt O60674); assay: JAK2 (h) kinase activity assay; format: biochemical
JAK2 (h), sequence (O60674 whole entry): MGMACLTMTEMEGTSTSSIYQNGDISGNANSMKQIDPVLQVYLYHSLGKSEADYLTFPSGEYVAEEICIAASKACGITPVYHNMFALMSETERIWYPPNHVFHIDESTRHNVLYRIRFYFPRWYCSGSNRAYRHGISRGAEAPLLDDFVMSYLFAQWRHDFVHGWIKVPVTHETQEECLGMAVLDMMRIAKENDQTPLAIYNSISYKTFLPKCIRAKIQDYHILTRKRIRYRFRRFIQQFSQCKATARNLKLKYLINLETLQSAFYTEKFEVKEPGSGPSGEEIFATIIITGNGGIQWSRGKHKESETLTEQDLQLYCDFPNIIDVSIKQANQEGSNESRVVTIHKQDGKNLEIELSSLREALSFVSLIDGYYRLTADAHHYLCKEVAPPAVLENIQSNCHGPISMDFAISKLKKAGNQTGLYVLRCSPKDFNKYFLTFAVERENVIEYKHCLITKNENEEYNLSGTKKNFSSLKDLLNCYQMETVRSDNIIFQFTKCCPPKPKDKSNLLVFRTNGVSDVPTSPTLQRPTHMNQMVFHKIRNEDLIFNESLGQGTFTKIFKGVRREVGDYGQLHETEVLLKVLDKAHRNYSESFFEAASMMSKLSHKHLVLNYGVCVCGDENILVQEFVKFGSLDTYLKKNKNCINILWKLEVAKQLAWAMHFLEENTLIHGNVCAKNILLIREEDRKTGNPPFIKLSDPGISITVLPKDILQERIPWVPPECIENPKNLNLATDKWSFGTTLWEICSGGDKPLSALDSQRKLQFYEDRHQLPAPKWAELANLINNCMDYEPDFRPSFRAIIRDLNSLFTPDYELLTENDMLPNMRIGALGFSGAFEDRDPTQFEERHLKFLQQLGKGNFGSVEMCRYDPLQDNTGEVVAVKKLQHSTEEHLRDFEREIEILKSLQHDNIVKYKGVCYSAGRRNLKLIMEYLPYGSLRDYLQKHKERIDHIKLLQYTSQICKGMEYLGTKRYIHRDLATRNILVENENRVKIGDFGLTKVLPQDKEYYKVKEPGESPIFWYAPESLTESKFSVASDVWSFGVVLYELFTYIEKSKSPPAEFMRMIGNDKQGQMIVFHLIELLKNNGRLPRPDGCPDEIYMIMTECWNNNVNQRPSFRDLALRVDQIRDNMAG
Experimental: as §1
as §2, with “JAK2 (h)” for “JAK1 (h)”, “with 8” for “with 20”, “mM MOPS” for “mM Tris/HCl”, “pH 7.0,” for “pH 7.5,”, “EDTA, 100” for “EDTA, 500”, “μM […],” for “μM GEEPLYWSFPAKKK,”
as §3

Aurora-B (h) = Aurora-B (h) (Homo sapiens (Human), UniProt Q96GD4); assay: Aurora-B (h) kinase activity assay; format: biochemical
Aurora-B (h), sequence (Q96GD4 whole entry): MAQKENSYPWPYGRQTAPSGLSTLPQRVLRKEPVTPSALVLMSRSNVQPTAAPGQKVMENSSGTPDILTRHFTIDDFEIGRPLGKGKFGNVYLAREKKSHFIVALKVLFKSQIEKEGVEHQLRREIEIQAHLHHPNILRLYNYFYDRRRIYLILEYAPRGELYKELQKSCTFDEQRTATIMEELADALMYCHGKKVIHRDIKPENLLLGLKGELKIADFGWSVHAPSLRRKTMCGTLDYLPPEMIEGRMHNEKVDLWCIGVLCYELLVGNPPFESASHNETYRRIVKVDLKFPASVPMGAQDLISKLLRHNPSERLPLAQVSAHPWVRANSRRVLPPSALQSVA
Experimental: as §1
(§4) Aurora-B (h) is incubated with 8 mM MOPS pH 7.0, 0.2 mM EDTA, 30 μM AKRRRLSSLRA, 10 mM MgAcetate and [γ-^33PATP] (specific activity approx. 500 cpm/pmol, concentration as required). The reaction is initiated by the addition of the MgATP mix. After incubation for 40 minutes at room temperature, the reaction is stopped by the addition of a 3% phosphoric acid solution. 10 μL of the reaction is then spotted onto a P30 filtermat and washed three times for 5 minutes in 75 mM phosphoric acid and once in methanol prior to drying and scintillation counting.
as §3

FLT3 (h) = FLT3 (h) (Homo sapiens (Human), UniProt P36888); assay: FLT3 (h) kinase activity assay; format: biochemical
FLT3 (h), sequence (P36888 27-993): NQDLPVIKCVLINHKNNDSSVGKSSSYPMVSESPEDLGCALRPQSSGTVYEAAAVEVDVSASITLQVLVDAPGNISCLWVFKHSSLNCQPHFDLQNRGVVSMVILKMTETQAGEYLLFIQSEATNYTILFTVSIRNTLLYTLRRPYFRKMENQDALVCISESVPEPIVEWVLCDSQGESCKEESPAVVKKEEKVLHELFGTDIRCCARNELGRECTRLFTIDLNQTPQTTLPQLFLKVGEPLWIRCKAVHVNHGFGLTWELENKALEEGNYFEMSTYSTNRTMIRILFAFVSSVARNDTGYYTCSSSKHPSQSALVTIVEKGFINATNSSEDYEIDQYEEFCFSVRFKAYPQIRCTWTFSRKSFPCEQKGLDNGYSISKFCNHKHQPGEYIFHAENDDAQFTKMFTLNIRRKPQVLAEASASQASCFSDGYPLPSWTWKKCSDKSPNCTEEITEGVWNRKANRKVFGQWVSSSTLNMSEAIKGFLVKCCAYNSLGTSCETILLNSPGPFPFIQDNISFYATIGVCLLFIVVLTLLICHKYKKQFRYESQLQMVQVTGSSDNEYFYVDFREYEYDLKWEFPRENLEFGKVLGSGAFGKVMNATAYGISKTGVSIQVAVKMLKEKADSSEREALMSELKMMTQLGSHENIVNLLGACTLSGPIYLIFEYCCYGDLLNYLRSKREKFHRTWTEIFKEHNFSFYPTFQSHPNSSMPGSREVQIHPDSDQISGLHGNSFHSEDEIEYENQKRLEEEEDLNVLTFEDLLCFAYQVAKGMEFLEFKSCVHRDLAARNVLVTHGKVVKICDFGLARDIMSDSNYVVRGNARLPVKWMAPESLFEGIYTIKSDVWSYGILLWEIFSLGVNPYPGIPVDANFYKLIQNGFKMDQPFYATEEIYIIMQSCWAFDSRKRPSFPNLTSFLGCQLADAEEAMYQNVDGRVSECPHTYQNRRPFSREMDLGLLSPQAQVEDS
Experimental: as §1
as §4, with “FLT3” for “Aurora-B”, “[…] EAIYAAPFAKKK,” for “30 μM AKRRRLSSLRA,”, “[γ-^33P-ATP]” for “[γ-^33PATP]”, “of” for “of a”
as §3

[1] = Compound stability in human liver microsomes; format: in vitro ADME; details: pH 7.4; for half-life at 5 μM: human liver microsomes 0.5 mg protein/mL, compound 5 μM, NADPH 1.0 mM, 37° C., read-out: Human T1/2; for CLint scaled at 5 μM: human liver microsomes, in vivo CLint extrapolated
Outline: (§5)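 Microsomes 0.5 mg protein/mL; cpd 5 μM; NADPH 1.0 mM; 100 mM phosphate pH 7.4; DMSO 0.05%; 37° C; duplicates. Timepoints 0–60 min, acetonitrile stop, LC/MS/MS. Data as % of zero-time; CLint extrapolated.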

[2] = Compound stability in rat liver microsomes; format: in vitro ADME; details: pH 7.4; for half-life at 5 μM: rat liver microsomes 0.5 mg protein/mL, compound 5 μM, NADPH 1.0 mM, 37° C., read-out: Rat T1/2; for CLint scaled at 5 μM: rat liver microsomes, in vivo CLint extrapolated
Outline: as §5

[3] = Pharmacokinetics after intravenous and oral administration in rats; format: in vivo
Outline: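 IV doses generally 0.5, 1 or 2 mg/kg; oral doses in rats generally 0.5, 1, 5 or 10 mg/kg, given as solution, suspension or capsule in various vehicles. Blood sampled over 0.083 or 0.25 h to 24 h; plasma analysed by LC/MS/MS.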

[4] = rat, plasma, iv dosing, dose 1 mg/kg

JAK1 (h), sequence (P23458 whole entry): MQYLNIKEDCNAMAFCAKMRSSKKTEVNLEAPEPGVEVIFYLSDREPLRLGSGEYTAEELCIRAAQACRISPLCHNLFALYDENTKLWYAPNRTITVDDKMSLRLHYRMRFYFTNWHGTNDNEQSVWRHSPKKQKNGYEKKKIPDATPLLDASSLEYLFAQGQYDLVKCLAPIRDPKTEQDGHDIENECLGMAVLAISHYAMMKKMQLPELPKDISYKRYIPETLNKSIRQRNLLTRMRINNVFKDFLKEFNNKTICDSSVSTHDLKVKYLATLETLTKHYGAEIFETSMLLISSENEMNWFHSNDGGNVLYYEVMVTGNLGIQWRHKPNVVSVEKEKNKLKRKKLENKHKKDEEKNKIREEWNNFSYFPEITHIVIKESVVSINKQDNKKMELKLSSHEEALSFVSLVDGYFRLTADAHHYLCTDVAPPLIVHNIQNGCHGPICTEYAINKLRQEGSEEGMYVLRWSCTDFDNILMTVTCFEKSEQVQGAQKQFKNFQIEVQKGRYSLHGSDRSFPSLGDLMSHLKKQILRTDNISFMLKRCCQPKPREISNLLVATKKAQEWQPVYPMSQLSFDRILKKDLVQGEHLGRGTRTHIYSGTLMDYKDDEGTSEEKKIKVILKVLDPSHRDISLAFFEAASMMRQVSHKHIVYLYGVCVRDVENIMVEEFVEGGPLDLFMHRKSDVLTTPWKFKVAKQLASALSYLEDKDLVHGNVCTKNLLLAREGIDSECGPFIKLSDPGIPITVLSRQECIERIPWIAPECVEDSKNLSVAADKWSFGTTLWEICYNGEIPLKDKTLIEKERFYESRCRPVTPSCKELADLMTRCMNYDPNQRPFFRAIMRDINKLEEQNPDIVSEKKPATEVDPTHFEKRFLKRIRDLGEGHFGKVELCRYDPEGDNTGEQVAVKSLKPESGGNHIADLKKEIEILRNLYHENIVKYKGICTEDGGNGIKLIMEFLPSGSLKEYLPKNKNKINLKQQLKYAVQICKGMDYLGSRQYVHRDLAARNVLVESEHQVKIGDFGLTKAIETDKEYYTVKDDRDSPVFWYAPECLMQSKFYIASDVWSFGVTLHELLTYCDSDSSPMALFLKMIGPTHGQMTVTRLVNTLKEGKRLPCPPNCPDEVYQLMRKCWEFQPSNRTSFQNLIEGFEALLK

IC50 (JAK1 (h)) [nM]	IC50 (Aurora-A (h)) [nM]	IC50 (JAK2 (h)) [nM]	IC50 (Aurora-B (h)) [nM]	IC50 (FLT3 (h)) [nM]	Structure (SMILES)	half-life at 5 μM [1] [h]	CLint scaled at 5 μM [1] [mL/min/kg]	half-life at 5 μM [2] [h]	CLint scaled at 5 μM [2] [mL/min/kg]	Clearance (CL) after iv dosing ([3]; iv dosing, dose 1 mg/kg) [mL/min/kg]	F ([3]; oral bioavailability, iv dose 1 mg/kg) [%]	AUC(0-t) [3, 4] [ng·h/mL]	half-life [3, 4] [h]	Vd ([3]; rat, plasma, iv dosing, dose 1 mg/kg, read-out: Vss) [L/kg]
0.6	8	20	–	–	N#CCC(=O)N1CC2CC(Nc3nc(Nc4cnn(-c5ccccn5)c4)ncc3Cl)CC2C1 (centres unmarked) [Ex. 7, 3-(5-((5-chloro-2-((1-(pyridin-2-yl)-1H-pyrazol-4-yl)amino)pyrimidin-4-yl)amino)hexahydrocyclopenta[c]pyrrol-2(1H)-yl)-3-oxopropanenitrile]	–	–	–	–	–	–	–	–	–
< 0.3	4	16	–	–	COc1ccc(-n2cc(Nc3ncc(Cl)c(NC4CC5CN(C(=O)CC#N)CC5C4)n3)cn2)cn1 (centres unmarked) [Ex. 10, 3-(5-((5-chloro-2-((1-(6-methoxypyridin-3-yl)-1H-pyrazol-4-yl)amino)pyrimidin-4-yl)amino)hexahydrocyclopenta[c]pyrrol-2(1H)-yl)-3-oxopropanenitrile]	–	–	–	–	–	–	–	–	–
8	10	136	2	503	CCOC(=O)N1CC2CC(Nc3nc(Nc4cnn(C)c4)ncc3Cl)CC2C1 (centres unmarked) [Ex. 15, ethyl 5-((5-chloro-2-((1-methyl-1H-pyrazol-4-yl)amino)pyrimidin-4-yl)amino)hexahydrocyclopenta[c]pyrrole-2(1H)-carboxylate]	–	–	–	–	–	–	–	–	–
12	11	142	2	1020	CCNC(=O)N1CC2CC(Nc3nc(Nc4cnn(C)c4)ncc3Cl)CC2C1 (centres unmarked) [Ex. 18, 5-((5-chloro-2-((1-methyl-1H-pyrazol-4-yl)amino)pyrimidin-4-yl)amino)-N-ethylhexahydrocyclopenta[c]pyrrole-2(1H)-carboxamide]	2.42	12	0.158	263	–	–	–	–	–

Structure (SMILES)	IC50 (JAK1 (h)) [nM]	IC50 (Aurora-A (h)) [nM]	IC50 (JAK2 (h)) [nM]	IC50 (Aurora-B (h)) [nM]	IC50 (FLT3 (h)) [nM]	half-life at 5 μM [1] [h]	CLint scaled at 5 μM [1] [mL/min/kg]	half-life at 5 μM [2] [h]	CLint scaled at 5 μM [2] [mL/min/kg]	Clearance (CL) after iv dosing ([3]; iv dosing, dose 1 mg/kg) [mL/min/kg]	F ([3]; oral bioavailability, iv dose 1 mg/kg) [%]	AUC(0-t) [3, 4] [ng·h/mL]	half-life [3, 4] [h]	Vd ([3]; rat, plasma, iv dosing, dose 1 mg/kg, read-out: Vss) [L/kg]
CC(C)(O)Cn1cc(Nc2ncc(Cl)c(NC3CCC4(CC3)CCN(S(C)(=O)=O)CC4)n2)cn1 [Ex. 37, 1-(4-((5-chloro-4-((3-(methylsulfonyl)-3-azaspiro[5.5]undecan-9-yl)amino)pyrimidin-2-yl)amino)-1H-pyrazol-1-yl)-2-methylpropan-2-ol]	2	71	131	–	–	0.905	32	1.17	35.2	29.3	53.6	604	1.25	2.61
